Read-outs that look alike come from different tables or passages of the source.
Experiments:
[1] = test system: oral KB carcinoma cell line; conditions: cited from earlier work
[2] = 90 d sub-chronic oral toxicity: immunotoxicity; type: in vivo
Experimental: Immunotoxicity in mice was performed in accordance to EPA guideline (1998). […] Humoral immunity was measured in terms of HA titer and plaque forming cell assay. […] Cell mediated immunity was measured in terms of % increase in paw volume in mice sensitized with SRBC.
(§1) Earlier, LD50 of ICB 14 C6 was derived from in vitro cytotoxicity assay by NRUmethod in 3T3 cells. […] For 90d sub-chronic toxicity study the highest dose selected was one-fourth of the limit dose. Four different doses of ICB14 C6 (47, 23, 12 and 0 [vehicle] mg/kg body weight) were prepared in ground nut oil daily for 5 days a week for 90d.

[3] = design: species or system mice; conditions: mouse, in vivo
Experimental: 14 d acute oral toxicity of compound 1 of formula I was performed. Three doses were selected: 47, 23, 12 and 0 mg/kg bw (Vehicle control) of compound 1 of formula I was administered by single oral gavage using blunt ended steel canula.
Before sacrifice, blood was drawn from the retro-orbital sinus of mice and rats with the help of non-heparinised capillary tubes and hematological parameters were assessed with the help of Automatic Hematology Analyzer (Medonic).

lung inflammation = experiment: Histological analysis of lung inflammation (H&E), OVA mouse model; type: in vivo, BALB/c mice
Experimental: Mice were sensitized with 0.2 ml PBS containing 50 μg ovalbumin (OVA) (Sigma, USA) and 4 mg aluminum hydroxide in saline intraperitonially (i.p.) on days 0, 7 and 14 as shown in FIG. 1. Sham group mice were sensitized with only alum dissolved in PBS. From day 18 to 27, mice were exposed to aerosol of OVA (3%) inhalation 25 minutes daily in a Plexiglas chamber (20×20×10 cm^3). The aerosol was generated by a nebulizer (OMRON CX model) with an airflow rate of 9 L/minute. Sham group mice were challenged with PBS alone.
Compound 1 of formula I was dissolved in 50% ethanol. So 50% ethanol was used as a vehicle. Group I was alum sensitized, saline challenged and treated with vehicle (SHAM/SAL/VEH), group II was OVA sensitized, OVA challenged and treated with 50% ethanol as vehicle (OVA/OVA/VEH), group III, IV, V, VI were OVA sensitized, OVA challenged and treated with 0.05, 0.1, 5 and 10 mg/kg compound 1 of formula I. Drug was given in the volume of 10 μl orally twice per day. Confirmatory experiments were done with two concentrations of compound 1 of formula I (5 and 10 mg/kg twice a day), and these findings were compared with parallel group of mice which were OVA-sensitized, -OVA challenged and treated orally once a day with 0.75 mg/kg Dexamethasone (OVA/OVA/DEX).
The excised lung portion was fixed in 10% buffered formalin. […]

IL-4 = experiment: PHA-stimulated human PBMC, IL-4 in supernatant by Cytometric Bead Array; type: cell-based; conditions: PHA 10 μg/ml, read-out: IC50 inhibitory activity, stimulation-induced IL-4
Experimental: Normal human peripheral blood mononuclear cells (PBMC) were stimulated with phytohemagglutinin (PHA) 10 μg/ml in the presence and absence of varying concentrations of compounds of formula I and II. Culture supernatants were harvested and IIL-4 and IL-5 cytokines were quantitated by Cytometric Bead Array (CBA™) kit (Becton Dickinson, USA) following manufacturers instructions using a Flow Cytometer (BD LSR, Becton Dickinson) and CBA™ analysis software (Becton Dickinson).

[4] = mouse, in vivo
Experimental: as §1
After 90d of oral treatment with ICB3001, 3 mice in each group were sacrificed and major organs were placed in 10% formalin to prepare histological slides. The slides were stained by haematoxylin-eosin dye.

hepatocarcinoma cells = conditions: cited from earlier work
COX-1 = COX-1 (Homo sapiens, UniProt P23219); conditions: cited from earlier work
Chain of COX-1 (P23219 24-599): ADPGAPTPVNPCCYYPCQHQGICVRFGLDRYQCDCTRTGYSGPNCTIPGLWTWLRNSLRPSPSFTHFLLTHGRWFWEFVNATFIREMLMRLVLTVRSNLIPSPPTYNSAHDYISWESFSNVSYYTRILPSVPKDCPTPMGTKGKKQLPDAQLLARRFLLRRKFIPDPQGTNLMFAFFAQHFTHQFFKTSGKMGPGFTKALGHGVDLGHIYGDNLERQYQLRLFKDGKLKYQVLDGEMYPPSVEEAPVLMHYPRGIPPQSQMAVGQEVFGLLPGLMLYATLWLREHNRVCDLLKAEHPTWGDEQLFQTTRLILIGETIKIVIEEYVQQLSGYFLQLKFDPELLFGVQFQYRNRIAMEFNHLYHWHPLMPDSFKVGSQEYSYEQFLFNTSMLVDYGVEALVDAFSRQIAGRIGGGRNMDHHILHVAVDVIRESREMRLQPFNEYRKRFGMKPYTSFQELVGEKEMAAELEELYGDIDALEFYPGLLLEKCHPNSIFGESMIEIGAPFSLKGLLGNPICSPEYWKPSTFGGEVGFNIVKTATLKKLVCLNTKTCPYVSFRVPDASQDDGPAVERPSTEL

In the case of `C=CCc1ccc(O)c(O)c1` [Compound 1, 4-allyl-benzene-1,2-diol], the “cell cycle arrest and apoptosis” value [1] is given as “induce cell cycle arrest and apoptosis”, the “Bone marrow cell viability %” value ([2]; 90 d, 12 mg/kg bw) is given as 97.26 ± 0.88% and the “Lymph node lymphocyte viability % (pooled)” value ([2]; 90 d, 12 mg/kg bw) is given as 97.40 ± 0.61%. The Splenocyte viability % ([2]; 90 d, 12 mg/kg bw) was 96.79 ± 0.36%, the “Bone marrow cell viability %” value ([2]; 90 d, 23 mg/kg bw) was 96.80 ± 1.15% and the “Lymph node lymphocyte viability % (pooled)” value ([2]; 90 d, 23 mg/kg bw) was 98.28 ± 0.80%. The Splenocyte viability % ([2]; 90 d, 23 mg/kg bw) was 96.56 ± 0.80%, the “Bone marrow cell viability %” value ([2]; 90 d, 47 mg/kg bw) was 95.45 ± 0.31% and the “Lymph node lymphocyte viability % (pooled)” value ([2]; 90 d, 47 mg/kg bw) was 98.17 ± 0.05%. The Splenocyte viability % ([2]; 90 d, 47 mg/kg bw) was 96.45 ± 0.62%, the “Lymph node lymphocyte, splenocytes and bone marrow cell viabilities” value ([2]; 90 d, all the groups) was > 94% and the “B cell function (PFC)” value ([2]; mouse, in vivo) was “Dose dependant decrease in B cell function”. The “Total IgA” value ([2]; mouse, in vivo, 12 mg/kg) was 264.25 ± 28.6 ng/mL, the “Total IgE” value ([2]; mouse, in vivo, 12 mg/kg) was 0.69 ± 0.115 and the “Total IgG” value ([2]; mouse, in vivo, 12 mg/kg) was 12.98 ± 0.53 mg/mL. The “Total IgM” value ([2]; mouse, in vivo, 12 mg/kg) was 6.65 ± 0.13, the “DTH response (% increase in paw volume)” value ([2]; mouse, in vivo, 12 mg/kg, 90 d) was 12.12 ± 2.96% and the “HA tire (reciprocal of the last dilution showing positive reaction)” value (“HA tire” for short) ([2]; mouse, in vivo, 12 mg/kg, 90 d) was 1280. For the same molecule, the PFC ([2]; mouse, in vivo, 12 mg/kg, 90 d) was 5533 ± 437 per 10^6lymphocytes, the “Total IgA” value ([2]; mouse, in vivo, 23 mg/kg) was 207.25 ± 9.7 ng/mL and the “Total IgE” value ([2]; mouse, in vivo, 23 mg/kg) was 0.74 ± 0.23. For the same molecule, the “Total IgG” value ([2]; mouse, in vivo, 23 mg/kg) was 15.21 ± 0.31 mg/mL, the “Total IgM” value ([2]; mouse, in vivo, 23 mg/kg) was 0.57 ± 0.17 and the “DTH response (% increase in paw volume)” value ([2]; mouse, in vivo, 23 mg/kg, 90 d) was 11.55 ± 3.77%. For the same molecule, the “HA tire” value ([2]; mouse, in vivo, 23 mg/kg, 90 d) was 640, the PFC ([2]; mouse, in vivo, 23 mg/kg, 90 d) was 4911 ± 873 per 10^6lymphocytes and the “Total IgA” value ([2]; mouse, in vivo, 47 mg/kg) was 167 ± 2.12 ng/mL. The “Total IgE” value ([2]; mouse, in vivo, 47 mg/kg) was 0.65 ± 0.09, the “Total IgG” value ([2]; mouse, in vivo, 47 mg/kg) was 6.11 ± 0.25 mg/mL and the “Total IgM” value ([2]; mouse, in vivo, 47 mg/kg) was 1.02 ± 0.30. The “DTH response (% increase in paw volume)” value ([2]; mouse, in vivo, 47 mg/kg, 90 d) was 11.28 ± 3.69%, the “HA tire” value ([2]; mouse, in vivo, 47 mg/kg, 90 d) was 320 and the PFC ([2]; mouse, in vivo, 47 mg/kg, 90 d) was 1849 ± 780 per 10^6lymphocytes. The GRAN ([3]; 12 mg/kg) was 9.82 ± 3.49%, the HCT ([3]; 12 mg/kg) was 39.72 ± 5.27% and the HGB ([3]; 12 mg/kg) was 12.6 ± 2.50 g/dL. For the same molecule, the LYMF ([3]; 12 mg/kg) was 8.54 ± 14.39%, the MCV ([3]; 12 mg/kg) was 41.76 ± 1.268 μm^3 and the MPV ([3]; 12 mg/kg) was 6.96 ± 0.33 μm^3. The PLT ([3]; 12 mg/kg) was 588 ± 198 10^3/mm^3, the RBC ([3]; 12 mg/kg) was 9.52 ± 1.313 ×10^6/mm^3 and the WBC ([3]; 12 mg/kg) was 9.1 ± 0.86 ×10^3/mm^3. The GRAN ([3]; 23 mg/kg) was 10.8 ± 2.30%, the HCT ([3]; 23 mg/kg) was 42.05 ± 7.86% and the HGB ([3]; 23 mg/kg) was 13.22 ± 1.72 g/dL. The LYMF ([3]; 23 mg/kg) was 2.12 ± 3.45%, the MCV ([3]; 23 mg/kg) was 41.675 ± 2.069 μm^3 and the MPV ([3]; 23 mg/kg) was 6.95 ± 0.36 μm^3. For the same molecule, the PLT ([3]; 23 mg/kg) was 518 ± 40 10^3/mm^3, the RBC ([3]; 23 mg/kg) was 10.05 ± 1.477 ×10^6/mm^3 and the WBC ([3]; 23 mg/kg) was 13.52 ± 2.71 ×10^3/mm^3. The GRAN ([3]; 47 mg/kg) was 9.46 ± 2.33%, the HCT ([3]; 47 mg/kg) was 39.12 ± 1.76% and the HGB ([3]; 47 mg/kg) was 13.2 ± 0.65 g/dL. It also gave an LYMF ([3]; 47 mg/kg) of 1.0 ± 0.87%, an MCV ([3]; 47 mg/kg) of 40.45 ± 1.126 μm^3 and an MPV ([3]; 47 mg/kg) of 7.1 ± 0.32 μm^3. The PLT ([3]; 47 mg/kg) was 476.5 ± 124^ 10^3/mm^3, the RBC ([3]; 47 mg/kg) was 9.74 ± 0.749 ×10^6/mm^3 and the WBC ([3]; 47 mg/kg) was 11.02 ± 2.61 ×10^3/mm^3. For the same molecule, the “lung inflammation (H&E)” value (lung inflammation; 5 mg/kg) was “mild reduction of inflammation”, the “lung inflammation (H&E)” value (lung inflammation; 10 mg/kg) was “a significant reduction in both peribronchial and perivascular inflammation” and the IC50 (IL-4) was 5 µM. The heart histology [4] was “no significant changes in the histo-architecture”, the kidney histology [4] was “no significant changes were observed” and the liver histology [4] was “no change in the structure of hepatic cells”. The lung histology ([4]; 47 mg/kg) was “slight thickening of intercellular septum and migration of polymorphonuclear lymphocytes”, the “cell cycle arrest and apoptosis” value (hepatocarcinoma cells) was “induce cell cycle arrest and apoptosis” and the COX-1 inhibition (COX-1) was “potent COX-1/COX-2 inhibitor”.
